Results taken from paper PMC5225203, “Multiparameter toxicity assessment of novel DOPO-derived organophosphorus flame retardants” (Archives of Toxicology, 2016).

How the values were obtained:
[1] = tested on: differentiated LUHMES cells; assay type: cell-based, human; settings: positive control
Procedure: Suppl. Fig. 10. Migration of mitochondria in neurites. Mitochondrial migration was detected in fully differentiated (day 6 of differentiation, DoD6) mixed LUHMES cultures consisting of 3% eGFP/mito-tRFP-overexpressing LUHMES in 97% unlabeled LUHMES in order to allow tracking of mitochondria in single neurites in an environment of normal LUHMES cell density (Schildknecht et al. 2013, ALTEX 30(4):427-444). Single cell time lapse imaging was performed for a period of 90 s in intervals of 3 s with a Zeiss LSM 780 inverted fluorescence microscope YOKOGAWA CSU-XI spinning disk system using an EVOLVE camera (Carl Zeiss Group, Oberkochen, Germany) equipped with a 5% CO2 /37°C controlled chamber and a 40 x 1.3 NA oil objective. For image analysis, kymographs (graphical representation of spatial position over time) based on the data obtained from single cell time lapse experiments were created using ImageJ Software (NIH, Bethesda, USA). The neurite was manually defined by the segmented line tool. To calculate mitochondrial velocity, diagonal lines were drawn for each moving mitochondrium in the kymograph and analysed by calculating the slope with the macro-plugin Kymo Line ROI, generated by Felix Schöneberger, Bioimaging Center (BIC), University of Konstanz, Germany.
(1 picture or pasted object on this page, not shown here)

[2] = tested on: ARE-dependent luciferase expression in KeratinoSens cells; test: KeratinoSens skin sensitization assay; assay type: cell-based; settings: positive control
Procedure: Generation of the stable KeratinoSens™ cell line was previously described in detail (Emter et al. [2010]). KeratinoSens™ cells were maintained in DMEM containing glutamax (Gibco/Invitrogen), 9 % FCS, and 0.5 mg/mL G418. For the experiments, KeratinoSens™ cells were seeded onto 96-well plates at a density of 10,000 cells per well in 125 µL medium without G418. After 24 h, the medium was replaced with 200 µL DMEM containing 1 % FCS and the test compounds. After a 2-day incubation period at 37 °C in an atmosphere containing 5 % CO2, the cells were washed once with PBS and a resazurin reduction assay (PrestoBlue®) was carried out in order to compare the viability of the differently treated groups. Fluorescence intensity was measured at 550 nmex and 590 nmem. After another washing step with PBS, cell lysis was performed using 20 µL/well passive lysis buffer (Promega) for 20 min at room temperature. Luciferase activity was measured by applying 50 µL luciferase substrate automatically to each well and detecting the resulting luminescence. Compounds were considered as skin sensitizers when a statistically significant induction of luciferase activity above a defined threshold of ≥1.5 in the absence of impaired cell viability was observed (Emter et al. [2010]; Natsch et al. [2011]).

[3] = tested on: 3D epidermal in vitro model generated from primary human keratinocytes; test: 3D epidermal in vitro model; assay type: cell-based; settings: positive control, 5 %, 15 min
Procedure: Human primary keratinocytes (PR3D-HPEK-50, CELLnTEC, Switzerland) were grown in flasks in proliferation medium (CNT-PR, CELLnTEC) until subconfluency was reached, after which the cells were seeded into transwell inserts containing polycarbonate membranes with a pore size of 0.4 µm at a density of 3.3 × 10^5 cells/cm^2 and grown for 3 days in CNT-PR until confluency was reached. Differentiation was initiated by the addition of 3D barrier medium (CNT-PR-3D, CELLnTEC) for 18 h to allow development of cell-to-cell adhesion structures. 3D growth and differentiation were induced by complete removal of medium from the upper transwell compartment and replacement of the CNT-PR-3D differentiation medium in the lower compartment. Cells were allowed to differentiate for 11 days with 3 medium changes per week in the lower compartment and direct cell-to-air contact in the top compartment. Flame retardants were suspended at a concentration of 200 mM in PBS containing 5 % DMSO, after which 100 µL of each test compound was applied on top of the epithelial barrier model. […] Cell viability of the epidermal models was assessed by measuring the reduction of resazurin to resorufin (PrestoBlue® Assay). Cell viability values (fluorescence signals) were normalized to the epidermal model thickness. […] Samples were mounted with DPX mounting medium (Sigma-Aldrich) and analyzed by microscopy (Olympus IX 81).

## C[n+]1ccc(-c2ccccc2)cc1 [MPP^+, reference compound]
[1]
  velocity of mitochondrial migration in neurites: significant decline

## CC(=O)C=Cc1ccccc1 [benzylidene acetone, reference compound]
[2]
  concentration at which luciferase increase is associated with cell death: > 10 µM

## CCCCCCCCCCCCOS(=O)(=O)[O-].[Na+] [SDS, sodium dodecyl sulfate]
[3]
  influence on the architecture of the epidermis: complete disintegration of the stratum corneum and substantial cell death in the stratum spinosum
